Like-named read-outs stand apart in the source and are kept apart here.
Key:
ACHN cells [1] = assay: Annexin V-FITC / propidium iodide flow cytometry, cell necroptosis; type: cell-based, Human; settings: 24 hours, 5 μM sorafenib, 10 μM GW5074, or both
Description: (§1) Cells were cultured as described in example 1, washed with phosphate buffered saline (PBS), and stained with annexin V-FITC and propidium iodide (PI) for 15 minutes. The presence of fluorescent Annexin V as well as propidium iodide (PI) was detected by flow cytometry so as to determine whether the cell death is caused by apoptosis or necrosis. The expression of c-Raf and DAPK as well as the phosphorylation status of DAPK were examined by Western blot and immunoprecipitation using antibodies. Anti-DAPK antibodies or non-immune rabbit IgG (IP: immunoglobulin) were included as negative controls, and cell survival was measured by SRB assay, as shown in example 1.

ACHN cells [2] = assay: SRB assay, growth inhibition of ACHN cells; type: cell-based, Human; settings: 5 μM sorafenib, 10 μM GW5074, single or combined, 24 hours
Description: Human renal carcinoma (ACHN) cells were cultured in Eagle MEM (Minimum Essential Medium) with 10% FBS (Fetal Bovine Serum) and 1% penicillin/streptomycin. Sulforhodamine B (SRB) is a negative […] with a sulfonic acid group and binds to basic amino acids of intracellular proteins in weak acidic conditions. The SRB […] was extracted from cells using weak alkaline solution and then subjected to absorbance measurement. The amount of intracellular proteins, which is an indicator for cell survival, can be calculated from the amount of SRB. ACHN or A498 cells were treated singularly with 2.5 μM sorafenib, 5 μM sorafenib, 10 μM sorafenib, GW5074, L779450 or PLX4720 for 24, 48 and 72 hours, followed by SRB assay to assess cell survival. Alternatively, ACHN cells were pre-treated with 10 μM GW5074, 10 μM L779450 or 10 μM PLX4720 for 30 minutes prior to 5 μM sorafenib treatment for additional 24, 48 and 72 hours, followed by SRB assay to assess growth inhibition.

ACHN cells [3] = assay: ACHN xenograft in immunodeficient mice, tumor volume; type: in vivo; settings: printed as 5 μM sorafenib, 10 μM GW5074, separate or combined; once a day for three weeks; n=8
Description: Six-week old immnunodeficient male mice (BALB/cAnN.Cg-Foxn1^nu/CrlNarl) with an average weight of 20 grams were xenografted with 1×10^7 ACHN cells to the right by […]. The mice were maintained in a specific pathogen-free (SPF) environment. The size of tumor was measured using a digital caliper twice a week and tumor volume was calculated by the equation of length*width*height*0.5. […] A total of four groups were included in the experiment: a control group which received only vehicle (DMSO), […], 25 mg/kg GW5074, […], respectively, with 8 mice in each group.

pDAPK^S308 = type: cell-based, Human; settings: ACHN cells; PP2A inhibitor, various concentrations, provided 30 minutes prior to the combination drugs
Description: as §1, with “1. In this experiment, ACHN cells were treated separately with DMSO (as a control group), 5 μM sorafenib, 10 μM GW5074, or combination therapy of 5 μM sorafenib and 10 μM GW5074 for 24 hours.” for “1.”

[4] = 10 mg/kg sorafenib, 25 mg/kg GW5074, or both

Description for Luc-ACHN-LL cells: Immunodeficient male mice was injected with 3×10^5 Luc-ACHN-LL cells in 50 μL PBS at the right renal capsule. In vivo luciferase activity was examined every day for up to three weeks so as to assure no leakage of cancer cells at the kidneys immediately after injection and to monitor metastasis of these cancer cells. Two to five minutes before utilizing the IVIS Xenogene system, 75 mg/kg D-Luciferin (Xenogen) in PBS was injected to the retro-orbital sinus of each mouse. Two weeks after injection of Luc-ACHN-LL cells, IVIS Xenogene system was used to monitor transfer of biological fluorescent images and to calculate the intensities of the photon signals (photons/s/cm^2/steradian). A total of five groups were included in the study: a control group which received only vehicle, and four test groups which respectively received 10 mg/kg sorafenib, 25 mg/kg GW5074, a combination therapy of 10 mg/kg sorafenib and 25 mg/kg GW5074 (the animals were fed with Sor 30 min post i.p. injection of GW), or 60 mg/kg sorafenib.

| SMILES | death within weeks following injection of cancer cells (survival) (Luc-ACHN-LL cells; [4]) [weeks] | average cell necroptosis rate (ACHN cells [1]) [%] | growth inhibition of cells (ACHN cells [2]) | xenografted tumor volume, inhibition effect (ACHN cells [3]) | inhibition of dephosphorylation of pDAPK^S308 under combination therapy (pDAPK^S308) | death within weeks following injection of cancer cells (survival) (Luc-ACHN-LL cells; high-dose 60 mg/kg sorafenib) [weeks] | body weight (Luc-ACHN-LL cells; mouse, in vivo, 60 mg/kg) |
| --- | --- | --- | --- | --- | --- | --- | --- |
| O=C1Nc2ccc(I)cc2/C1=C/c1cc(Br)c(O)c(Br)c1 [GW5074, 3-(3,5-Dibromo-4-hydroxy-benzylidene)-5-iodo-1,3-dihydro-indol-2-one] | ≤ 5 | 1.35 | no growth inhibition | nearly no inhibition effect | – | – | – |
| C=C1[C@@H](O)[C@@H]2O[C@]3(CC[C@H](/C=C/[C@@H](C)[C@@H]4CC(C)=C[C@@]5(O[C@H](C[C@@](C)(O)C(=O)O)CC[C@H]5O)O4)O3)CC[C@H]2O[C@@H]1[C@@H](O)C[C@H](C)[C@H]1O[C@@]2(CCCCO2)CC[C@H]1C [Okadaic acid] | – | – | – | – | effective in inhibition of dephosphorylation of pDAPK^S308 | – | – |
| CNC(=O)c1cc(Oc2ccc(NC(=O)Nc3ccc(Cl)c(C(F)(F)F)c3)cc2)ccn1 [sorafenib] | ≤ 8 | 0.77 | no growth inhibition | nearly no inhibition effect | – | ≤ 10 | loss of weight |

Reference: US9782393B2, “Pharmaceutical compositions and methods for treating cancer and biomarkers for drug screening” (NATIONAL DEFENSE MEDICAL CENTER, priority 2013, dated 2017)
